Activity calls are given as the source filed them. No cut-off for these calls is given here.
Legend:
[1] = target: T1, c-Myc/Max (Homo sapiens) (UniProt P01106+P61244); experiment: Inhibition of dimerization of human MYC bHLH-LZ domain/MAX bHLH-LZ domain expressed in Escherichia coli in presence of Alexa Fluor 594-tagged E-box duplex DNA by fluorescence polarization assay
[2] = target: Myc proto-oncogene protein (Homo sapiens) (UniProt P01106); experiment: Inhibition of human ATG-Myc expressed in chicken embryo fibroblasts assessed as reduction in Myc-induced oncogenic transformation by measuring efficiency of oncogenic transformation at 10 uM
Myc proto-oncogene protein (Homo sapiens), sequence (P01106 whole entry): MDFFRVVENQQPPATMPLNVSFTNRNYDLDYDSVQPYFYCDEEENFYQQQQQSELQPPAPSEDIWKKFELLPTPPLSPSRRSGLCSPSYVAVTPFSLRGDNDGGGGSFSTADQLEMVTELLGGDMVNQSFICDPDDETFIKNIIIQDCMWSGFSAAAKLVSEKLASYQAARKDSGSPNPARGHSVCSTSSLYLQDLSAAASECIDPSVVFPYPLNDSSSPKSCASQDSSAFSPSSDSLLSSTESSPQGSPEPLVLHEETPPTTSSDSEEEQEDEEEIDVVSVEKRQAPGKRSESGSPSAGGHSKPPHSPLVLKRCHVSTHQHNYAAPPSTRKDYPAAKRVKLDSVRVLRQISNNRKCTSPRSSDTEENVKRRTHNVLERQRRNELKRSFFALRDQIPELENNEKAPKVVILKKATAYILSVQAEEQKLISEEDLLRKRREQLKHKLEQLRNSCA

[3] = target: T1, c-Myc/Max (Homo sapiens); experiment: Inhibition of MYC/MAX dimerization in human MDA-MB-231 cells assessed as increase in NDRG1 expression at 20 uM incubated for 24 hrs by Western blot analysis; format: cell-based
[4] = target: T1, c-Myc/Max (Homo sapiens); experiment: Inhibition of MYC/MAX dimerization in human MDA-MB-231 cells assessed as reduction in Myc expression at 20 uM incubated for 24 hrs by Western blot analysis; format: cell-based
[5] = test system: K562; experiment: Antiproliferative activity against human K562 cells assessed as inhibition of cell proliferation at 25 uM incubated for 3 days by Cell-titer 96 Non-radioactive cell proliferation assay; format: functional, cell-based
[6] = test system: MDA-MB-231; experiment: Antitumor activity against human MDA-MB-231 cells xenografted in nude mouse assessed as reduction tumor weight at 10 mg/kg, ip dosed daily for 31 days; format: functional, organism-based
[7] = Toxicity in nude mouse xenografted with human MDA-MB-231 cells assessed as effect on body weight at 10 mg/kg, ip dosed daily for 31 days; format: organism-based; details: in vivo, 744 h
[8] = species on record: Homo sapiens; experiment: Inhibition of PI3K H1047R mutant (unknown origin) expressed in chicken embryo fibroblasts assessed as reduction in Myc-induced oncogenic transformation by measuring efficiency of oncogenic transformation up to 20 uM
[9] = test system: SW480; experiment: Antiproliferative activity against human SW480 cells assessed as inhibition of cell proliferation at 50 uM incubated for 3 days by Cell-titer 96 Non-radioactive cell proliferation assay; format: functional, cell-based
[10] = test system: MDA-MB-231; experiment: Antitumor activity against human MDA-MB-231 cells xenografted in nude mouse assessed as reduction tumor volume at 10 mg/kg, ip dosed daily for 31 days; format: functional, organism-based
[11] = test system: Ramos; experiment: Antiproliferative activity against human Ramos cells assessed as inhibition of cell proliferation at 2.5 to 10 uM incubated for 72 hrs by resazurin dye based assay; format: functional
[12] = test system: SUM-159-PT; experiment: Antiproliferative activity against human SUM159PT cells assessed as inhibition of cell proliferation at 10 to 40 uM incubated for 3 days by Cell-titer 96 Non-radioactive cell proliferation assay; format: functional, cell-based
[13] = test system: Cotesia glomerata; experiment: Antiproliferative activity against v-myc-transformed primary QEF/MC29 cells assessed as inhibition of cell proliferation at 50 uM incubated for 3 days by Cell-titer 96 Non-radioactive cell proliferation assay; format: functional
[14] = target: Myc proto-oncogene protein (Homo sapiens) (UniProt P01106); experiment: Inhibition of human ATG-Myc expressed in chicken embryo fibroblasts assessed as reduction in Myc-induced oncogenic transformation by measuring efficiency of oncogenic transformation
[15] = test system: MDA-MB-231; experiment: Antiproliferative activity against human MDA-MB-231 cells assessed as inhibition of cell proliferation at 10 to 40 uM incubated for 3 days by Cell-titer 96 Non-radioactive cell proliferation assay; format: functional, cell-based
[16] = test system: MOLT-4; experiment: Antiproliferative activity against human MOLT4 cells assessed as inhibition of cell proliferation at 25 uM incubated for 3 days by Cell-titer 96 Non-radioactive cell proliferation assay; format: functional, cell-based
[17] = Acute toxicity in rat at 10 mg/kg; format: organism-based; details: in vivo
[18] = test system: Rous sarcoma virus; experiment: Inhibition of Rous sarcoma virus v-SRC expressed in chicken embryo fibroblasts assessed as reduction in Myc-induced oncogenic transformation by measuring efficiency of oncogenic transformation up to 20 uM
[19] = test system: NCI-H460; experiment: Antiproliferative activity against human NCI-H460 cells assessed as inhibition of cell proliferation at 10 to 40 uM incubated for 3 days by Cell-titer 96 Non-radioactive cell proliferation assay; format: functional, cell-based
[20] = Acute toxicity in mouse at 10 mg/kg; format: organism-based; details: in vivo
[21] = test system: Mus musculus; experiment: Inhibition of Myc in nude mouse xenografted with human MDA-MB-231 cells assessed as increase in NDRG1 expression at 10 mg/kg, ip dosed daily for 31 days by Western blot analysis; format: functional, organism-based
[22] = test system: Cotesia glomerata; experiment: Antiproliferative activity against methylcholanthrene-transformed primary quail embryo fibroblasts assessed as inhibition of cell proliferation at 50 uM incubated for 3 days by Cell-titer 96 Non-radioactive cell proliferation assay; format: functional
[23] = test system: Avian sarcoma virus 17; experiment: Inhibition of Avian sarcoma virus 17 v-Jun expressed in chicken embryo fibroblasts assessed as reduction in Myc-induced oncogenic transformation by measuring efficiency of oncogenic transformation up to 20 uM
[24] = Antiproliferative activity against HSF assessed as inhibition of cell proliferation at 50 uM incubated for 3 days by Cell-titer 96 Non-radioactive cell proliferation assay; details: human, 72 h
[25] = test system: Raji; experiment: Antiproliferative activity against human Raji cells assessed as inhibition of cell proliferation at 2.5 to 10 uM incubated for 72 hrs by resazurin dye based assay; format: functional
[26] = target: Myc proto-oncogene protein (Homo sapiens) (UniProt P01106); details: MDA-MB-231, 20 uM
Description: Inhibition of Myc in human MDA-MB-231 cells assessed as increase in NDRG1 expression at 20 uM incubated for 24 hrs by Western blot analysis

[27] = species on record: Homo sapiens; experiment: Antiproliferative activity against human Akata cells assessed as inhibition of cell proliferation at 2.5 to 10 uM incubated for 72 hrs by resazurin dye based assay; format: functional
[28] = test system: Mus musculus; experiment: Inhibition of Myc in nude mouse xenografted with human MDA-MB-231 cells assessed as increase in NDRG1 expression at 10 mg/kg, ip dosed daily for 31 days by immunofluorescent staining; format: functional, organism-based
[29] = test system: HL-60; experiment: Antiproliferative activity against human HL60 cells assessed as inhibition of cell proliferation at 25 uM incubated for 3 days by Cell-titer 96 Non-radioactive cell proliferation assay; format: functional, cell-based
[30] = test system: MDA-MB-231; experiment: Effect on Myc expression in human MDA-MB-231 cells at 20 uM incubated for 24 hrs by Western blot analysis; format: functional, cell-based

In the case of `NC(=O)c1ccc(-c2cc(-c3ccc(Br)cc3)nc(-c3ccc([N+](=O)[O-])cc3)c2)cc1`, the inhibition [1] is reported as “inactive” and the inhibition [2] is reported as “inactive”.

For `NC(=O)c1ccc(-c2cc(-c3ccncc3)nc(-c3ccc([N+](=O)[O-])cc3)c2)cc1`, the inhibition [1] was “Active” and the inhibition [2] was 100%.

With `NC(=O)c1ccc(-c2cc(-c3ccc(S(N)(=O)=O)cc3)nc(-c3ccco3)c2)cc1` the inhibition [1] was “Active”.

With `CS(=O)(=O)c1ccc(-c2cc(-c3ccc(C(N)=O)cc3)cc(-c3ccco3)n2)cc1` the inhibition [1] was “inactive” and the inhibition [2] was “inactive”.

For `NC(=O)c1ccc(-c2cc(-c3ccc(OC(F)(F)F)cc3)nc(-c3ccco3)c2)cc1`, the inhibition [1] was “Active” and the inhibition [2] was “Active”.

With `CCc1ccc(/C=C2/SC(=S)NC2=O)cc1` the inhibition [3] was “Active” and the inhibition [4] was “Active”.

For `NC(=O)c1ccc(-c2cc(-c3ccc([N+](=O)[O-])cc3)nc(-c3ccco3)c2)cc1`, the Activity [5] was “Active”, the Activity [6] was “Active” and the Activity [7] was “Non-Toxic”. The inhibition [8] was “Active”, the Activity [9] was “inactive” and the Activity [10] was “Active”. The inhibition [1] was “Active”, the Activity [11] was “Active” and the Activity [12] was “Active”. For the same molecule, the inhibition [2] was 100%, the Activity [13] was “Active” and the inhibition [14] was “Dose-dependent effect”. For the same molecule, the Activity [15] was “Active”, the Activity [16] was “Active” and the Activity [17] was “Non-Toxic”. For the same molecule, the inhibition [18] was “inactive”, the Activity [19] was “Active” and the Activity [20] was “Non-Toxic”. The inhibition [21] was “Active”, the Activity [22] was “Active” and the inhibition [23] was “Active”. For the same molecule, the Activity [24] was “Non-Toxic”, the Activity [25] was “Active” and the inhibition [26] was “Active”. For the same molecule, the Activity [27] was “Active”, the inhibition [28] was “Active” and the Activity [29] was “Active”. For the same molecule, the Activity [30] was “inactive”.

For `NC(=O)c1ccc(-c2cc(-c3ccc(SC(F)(F)F)cc3)nc(-c3ccco3)c2)cc1`, the inhibition [1] was “inactive” and the inhibition [2] was “inactive”.

In the case of `COC(=O)c1ccc(-c2cc(-c3ccc(C(N)=O)cc3)cc(-c3ccco3)n2)cc1`, the inhibition [1] is reported as “inactive” and the inhibition [2] is reported as “inactive”.

In the case of `CN1CCN(c2ccc(-c3cc(-c4ccc(C(N)=O)cc4)cc(-c4ccc([N+](=O)[O-])cc4)n3)cc2)CC1`, the inhibition [1] is reported as “inactive” and the inhibition [14] is reported as “Active”.

For `NC(=O)c1ccc(-c2cc(-c3ccc([N+](=O)[O-])cc3)nc(-c3ccc(Br)cn3)c2)cc1`, the inhibition [1] was “inactive” and the inhibition [2] was “inactive”.

With `COC(=O)c1cccc(-c2cc(-c3ccc(C(N)=O)cc3)cc(-c3ccco3)n2)c1` the inhibition [1] was “Active”, the inhibition [2] was 100% and the inhibition [14] was “Active”.

For `N#Cc1ccc(-c2cc(-c3ccc(C(N)=O)cc3)cc(-c3ccco3)n2)cc1`, the inhibition [1] was “Active”, the inhibition [2] was 100% and the inhibition [14] was “Active”.

In the case of `NC(=O)c1ccc(-c2cc(-c3ccc([N+](=O)[O-])cc3)nc(-c3ccccn3)c2)cc1`, the inhibition [1] is reported as “inactive” and the inhibition [2] is reported as “inactive”.

In the case of `NC(=O)c1ccc(-c2cc(-c3ccc(C(F)(F)F)cc3)nc(-c3ccco3)c2)cc1`, the inhibition [1] is reported as “Active” and the inhibition [2] is reported as “Active”.

For `NC(=O)c1ccc(-c2cc(-c3ccc([N+](=O)[O-])cc3)nc(-c3cccc(Br)n3)c2)cc1`, the inhibition [1] was “inactive” and the inhibition [2] was “inactive”.

For `NC(=O)c1ccc(-c2cc(-c3ccc([N+](=O)[O-])cc3)nc(-c3ccco3)c2)o1`, the inhibition [1] was “Active” and the inhibition [2] was “Active”.

With `NC(=O)c1ccc(-c2cc(-c3ccc([N+](=O)[O-])cc3)nc(-c3ccccc3Br)c2)cc1` the inhibition [1] was “inactive” and the inhibition [2] was “inactive”.
